Assay results: patent publication US9469878B2, “Methods of treating cancer comprising targeting NQO1” (The Board of Regents of the University of Texas System, priority 2010, dated 2016)
Several values for one entry are separate records, joined by “and”; a condition that tells them apart may be missing. Equal values may be shown once.

Key:
H441 cells = experiment: LD50 responses of NSCLC cell lines treated with β-Lap; format: cell-based, human; conditions: NQO1 enzyme activities ≧50 units, β-Lap 2 h, 7 days later
Method: (§1) LD50 responses were plotted as a function of NQO1 enzymatic levels. The notations, *1/*1 and *2/*2 represent the NQO1 status of each cell line as homozygous wild type (*1/*1) or homozygous polymorphic (*2/*2) genotypes. […] In (b), Kaplan-Meier survival curve of mice bearing orthotopic lung tumors implanted with *1/*1 A549 cells. Mice were treated intravenously (5 doses every other day) with β-lap-HPβ-CD or vehicle alone (HPβ-CD).

A549 cells = experiment: as above; format: cell-based, human; conditions: NQO1 enzyme activities ≧50 units, β-Lap 2 h, 7 days later
Method: as §1

[1] = molecular target: T1, NQO1 in 231-NQ+ cell extracts (Homo sapiens, UniProt P15559); experiment: Oxygen consumption in S9 cell extracts; format: biochemical; conditions: in 4 h, 231-NQ+ versus 231-NQ− cell extracts
T1 construct: expressed in transfected cells; host or cells: MDA-MB-231 (231-NQ+), S9 supernatant
T1 sequence (P15559 whole entry): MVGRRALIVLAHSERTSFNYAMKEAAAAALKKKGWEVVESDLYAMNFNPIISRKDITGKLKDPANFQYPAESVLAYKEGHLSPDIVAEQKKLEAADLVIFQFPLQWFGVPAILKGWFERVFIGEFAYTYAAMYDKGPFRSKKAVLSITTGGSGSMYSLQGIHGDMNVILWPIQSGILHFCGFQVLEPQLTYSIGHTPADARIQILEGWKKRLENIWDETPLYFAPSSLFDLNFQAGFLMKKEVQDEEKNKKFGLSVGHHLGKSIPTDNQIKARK

HCC1171/NSCLC = experiment: β-lapachone lethality in NQO1 genotyped cancer cells; format: cell-based, human
Method: (§2) Cell lines, mostly from a 5-panel nonsmall cell lung cancer panel from the UT Southwestern SPORE, were assessed for NQO1 polymorphism status and then monitored for NQO1 enzyme assays using β-lapachone or the standard menadione substrates. Cell line responses to β-lapachone exposures (μM, 2 h) were then assessed and lethal doses causing 50% lethality with or without dicoumarol (40 μM) co-treatments were recorded. NQO1*2/*2 and *3/*3 polymorphisms were detected from NQO1 *1/*1 wild-type sequences by PCR-RFLP. Genomic DNA was extracted from the cells using Qiagen spin columns. Using previously described oligonucleotide primers, PCR products underwent gel electrophoresis. Final genotyping was determined based on the size and pattern of separated bands diagnostic for *1/*1 (wild-type), or polymorphic *2/*2 or *3/*3 NQO1 polymorphisms.

H1993 = experiment: as above; format: cell-based, human
Method: as §2

Calu-3/NSCLC = experiment: as above; format: cell-based, human
Method: as §2

H322 = experiment: as above; format: cell-based, human
Method: as §2

HCC2935 = experiment: as above; format: cell-based, human
Method: as §2

HCC44 = experiment: as above; format: cell-based, human
Method: as §2

H2073 = experiment: as above; format: cell-based, human
Method: as §2

HCC366/NSCLC = experiment: as above; format: cell-based, human
Method: as §2

H2009/NSCLC = experiment: as above; format: cell-based, human
Method: as §2

MDA-MB-231/Breast = experiment: as above; format: cell-based, human
Method: as §2

H292 = experiment: as above; format: cell-based, human
Method: as §2

H1648 = experiment: as above; format: cell-based, human
Method: as §2

T47D/BreastCancer = experiment: as above; format: cell-based, human
Method: as §2

MDA-MB-468/Breast = experiment: as above; format: cell-based, human
Method: as §2

PC-3 cells = experiment: Intracellular NAD+ and ATP levels; format: cell-based, human; conditions: β-lap exposure
Method: ATP levels were analyzed from whole-cell extracts using CellTiter-Glo Luminescent Cell Viability Assays (Promega, Madison, Wis.) following the manufacture's instructions. Data were graphed as means±SE from at least three independent experiments in triplicates.

[2] = system: MDA-MB-231 cells expressing NQO1 (231+); experiment: Long term survival assay; format: cell-based, human; conditions: 231-NQ+ cells
Method: Cells were cultured and treated as described above.
Data were expressed as relative survival (treated/control×100%).

H596/NSCLC = experiment: β-lapachone lethality in NQO1 genotyped cancer cells; format: cell-based, human; conditions: NQO1 genotype *2/*2, 2 h exposure
Method: as §1
as §2, with “Cell line responses to β-lapachone exposures (μM, 2 h) were then assessed and lethal doses causing 50% lethality with or without dicoumarol (40 μM) co-treatments were recorded.” left out

H2882/NSCLC = experiment: as above; format: cell-based, human
Method: as §1
as §2, with “Cell line responses to β-lapachone exposures (μM, 2 h) were then assessed and lethal doses causing 50% lethality with or without dicoumarol (40 μM) co-treatments were recorded.” left out

PARP1 in 231-NQ+ cells = experiment: PAR formation (PARP1 hyperactivation), Western blot; format: cell-based, human; conditions: after 2 μM β-lap
[3] = *3/*3, 2 h, + dicoumarol (40 μM)
[4] = NQO1 genotype *3/*3, 2 h exposure
[5] = *2/*2, 2 h, + dicoumarol (40 μM)
[6] = NQO1 genotype *2/*2, 2 h exposure

For `CC1(C)CCC2=C(O1)c1ccccc1C(=O)C2=O` [β-Lap, 3,4-dihydro-2,2-dimethyl-2H-naphtho[1,2-b]pyran-5,6-dione], the LD50 (H441 cells) was 1.5 µM, the LD50 (A549 cells) was 2.5 µM and the “Increase of O2 consumption” value [1] was about 40 fold. For the same molecule, the “LD50 + DIC” value (HCC1171/NSCLC; [3]) was 2 µM, the “β-Lap Lethality LD50” value (HCC1171/NSCLC; [4]) was 3 µM and the “LD50 + DIC” value (H1993; H1993, *1/*1, 2 h, + dicoumarol (40 μM)) was over 10 µM. The “β-Lap Lethality LD50” value (H1993; H1993, NQO1 genotype *1/*1, 2 h exposure) was 1.8 µM, the “LD50 + DIC” value (Calu-3/NSCLC; [3]) was 3 µM and the “β-Lap Lethality LD50” value (Calu-3/NSCLC; [4]) was 2.4 µM. For the same molecule, the “LD50 + DIC” value (H322; H322, *1/*1, 2 h, + dicoumarol (40 μM)) was over 20 µM, the “β-Lap Lethality LD50” value (H322; H322, NQO1 genotype *1/*1, 2 h exposure) was 5.7 µM and the “LD50 + DIC” value (HCC2935; HCC2935, *1/*3, 2 h, + dicoumarol (40 μM)) was over 10 µM. For the same molecule, the “β-Lap Lethality LD50” value (HCC2935; HCC2935, NQO1 genotype *1/*3, 2 h exposure) was 1.0 µM, the “LD50 + DIC” value (HCC44; HCC44, *1/*2, 2 h, + dicoumarol (40 μM)) was over 10 µM and the “β-Lap Lethality LD50” value (HCC44; HCC44, NQO1 genotype *1/*2, 2 h exposure) was 2.8 µM. For the same molecule, the “LD50 + DIC” value (H2073; H2073, *1/*1, 2 h, + dicoumarol (40 μM)) was over 10 µM, the “β-Lap Lethality LD50” value (H2073; H2073, NQO1 genotype *1/*1, 2 h exposure) was 1.8 µM and the “LD50 + DIC” value (HCC366/NSCLC; [5]) was over 10 µM. The “β-Lap Lethality LD50” value (HCC366/NSCLC; [6]) was over 10 µM, the “LD50 + DIC” value (H2009/NSCLC; [3]) was 5.4 µM and the “β-Lap Lethality LD50” value (H2009/NSCLC; [4]) was 4.3 µM. The “LD50 + DIC” value (MDA-MB-231/Breast; [5]) was over 10 µM, the “β-Lap Lethality LD50” value (MDA-MB-231/Breast; [6]) was over 10 µM and the “LD50 + DIC” value (H292; H292, *1/*2, 2 h, + dicoumarol (40 μM)) was over 10 µM. For the same molecule, the “β-Lap Lethality LD50” value (H292; H292, NQO1 genotype *1/*2, 2 h exposure) was 1.8 µM, the “LD50 + DIC” value (H1648; H1648, *1/*1, 2 h, + dicoumarol (40 μM)) was over 20 µM and the “β-Lap Lethality LD50” value (H1648; H1648, NQO1 genotype *1/*1, 2 h exposure) was 4.1 µM. For the same molecule, the “LD50 + DIC” value (T47D/BreastCancer; [3]) was 4 µM, the “β-Lap Lethality LD50” value (T47D/BreastCancer; [4]) was 4 µM and the “LD50 + DIC” value (MDA-MB-468/Breast; [5]) was over 10 µM. For the same molecule, the “β-Lap Lethality LD50” value (MDA-MB-468/Breast; [6]) was over 10 µM, the “Time to exhaustion of NAD+ and ATP levels” value (PC-3 cells) was at most 120 min and the Lethal dose ([2]; 2 h) was over 2 µM. The Sublethal dose ([2]; 2 h) was 1 µM, the LD70 dose ([2]; 2 h treatment) was about 2 µM and the “β-Lap Lethality LD50” value (H596/NSCLC) was >20 µM and >10 µM. For the same molecule, the “LD50 + DIC” value (H2882/NSCLC; [5]) was over 40 µM, the “β-Lap Lethality LD50” value (H2882/NSCLC; [6]) was over 20 µM and the “Time of peak PAR formation” value (PARP1 in 231-NQ+ cells) was 30 min.
